The values below come from US20050096327A1, “Novel norepinephrine reuptake inhibitors for the treatment of central nervous system disorders” (priority 2003, published 2005).

Assay [1] addresses T1, human norepinephrine transporter (Homo sapiens, UniProt P23975).
T1 construct: host or cells: HEK-293
Put plainly: hNET receptor binding ([125I]-RTI-55, membranes of transfected HEK-293 cells). To be noted: 50 pM [125I]-RTI-55, 90 min room temperature; IC50 converted by Cheng-Prusoff. The method, then: Cell pastes of HEK-293 cells transfected with the human norepinephrine transporter were supplied by the Pfizer Ann Arbor Protein Expression and Production group. Pellets were resuspended in 400 to 700 ml of Krebs-HEPES assay buffer (25 mM HEPES, 122 mM NaCl, 3 mM KCl, 1.2 mM MgSO4, 1.3 mM CaCl2, and 11 mM glucose, pH 7.4) with a Polytron homogenizer at setting 7 for 30 sec. Aliquots of membranes (5 mg/ml protein) were stored in liquid nitrogen until used.
The binding assay was set up in Beckman deep-well polypropylene plates with a total volume of 250 μl containing: drug (10^−5M to 10^−12M), cell membranes, and 50 pM [^125I]-RTI-55 (Perkin Elmer, NEX-272; specific activity 2200 Ci/mmol). The reaction was incubated by gentle agitation for 90 min at room temperature and was terminated by filtration through Whatman GF/C filter plates using a Brandel 96-well plate harvester. Scintillation fluid (100 μl) was added to each well, and bound [^125I]-RTI-55 was determined using a Wallac Trilux Beta Plate Counter. Test compounds were run in duplicate, and specific binding was defined as the difference between binding in the presence and absence of 10 μM desipramine.
Excel and GraphPad Prism software were used for data calculation and analysis. IC50 values were converted to Ki values using the Cheng-Prusoff equation. The Ki values for the hNET are reported below in Table 1.

Assay [2] deals with T2, human serotonin transporter (Homo sapiens, UniProt P31645).
T2 construct: host or cells: HEK-293
T2 sequence (P31645 whole entry): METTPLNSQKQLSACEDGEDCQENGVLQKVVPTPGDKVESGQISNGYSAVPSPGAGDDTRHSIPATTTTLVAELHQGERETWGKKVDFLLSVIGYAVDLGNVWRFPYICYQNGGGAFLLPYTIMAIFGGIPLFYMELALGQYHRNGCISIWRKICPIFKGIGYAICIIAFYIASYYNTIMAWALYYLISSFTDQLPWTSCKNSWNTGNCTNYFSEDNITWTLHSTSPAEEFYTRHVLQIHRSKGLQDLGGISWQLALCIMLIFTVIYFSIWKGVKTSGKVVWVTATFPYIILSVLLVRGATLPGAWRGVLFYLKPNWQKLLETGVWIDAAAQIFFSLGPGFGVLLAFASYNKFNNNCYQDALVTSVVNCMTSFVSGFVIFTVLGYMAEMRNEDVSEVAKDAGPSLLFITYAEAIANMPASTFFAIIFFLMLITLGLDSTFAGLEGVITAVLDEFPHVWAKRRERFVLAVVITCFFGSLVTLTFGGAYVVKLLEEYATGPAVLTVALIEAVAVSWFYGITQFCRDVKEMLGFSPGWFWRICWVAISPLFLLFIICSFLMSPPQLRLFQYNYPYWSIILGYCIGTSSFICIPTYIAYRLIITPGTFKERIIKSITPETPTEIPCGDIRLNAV
As to the kind of experiment: hSERT receptor binding ([125I]-RTI-55, membranes of transfected HEK-293 cells). The settings on record: 50 pM [125I]-RTI-55, 90 min room temperature; IC50 converted by Cheng-Prusoff. The method, then: Cell pastes of HEK-293 cells transfected with the human serotonin transporter were supplied by the Pfizer Ann Arbor Protein Expression and Production Group. Pellets were resuspended in 400 to 700 mL of Krebs-HEPES assay buffer (25 mM HEPES, 122 mM NaCl, 3 mM KCl, 1.2 mM MgSO4, 1.3 mM CaCl2, and 11 mM glucose, pH 7.4) with a Polytron homogenizer at Setting 7 for 30 seconds. Aliquots of membranes (˜2.5 mg/mL protein) were stored in liquid nitrogen until used.
Assays were set up in FlashPlates pre-coated with 0.1% PEI in a total volume of 250 μL containing: drug (10^−5M to 10^−12M), cell membranes, and 50 pM [^125I]-RTI-55 (Perkin Elmer, NEX-272; specific activity 2200 Ci/mmol). The reaction was incubated and gently agitated for 90 minutes at room temperature, and terminated by removal of assay volume. Plates were covered, and bound [^125I]-RTI-55 was determined using a Wallac Trilux Beta Plate Counter. Test compounds were run in duplicate, and specific binding was defined as the difference between binding in the presence and absence of 10 μM citalopram.
Excel and GraphPad Prism software were used for data calculation and analysis. IC50 values were converted to Ki values using the Cheng-Prusoff equation. The Ki values for the hSERT are reported below in Table 1.

Where a name gives a salt, the structure may show the parent alone. Some results are limits rather than exact numbers.

T1 sequence (P23975 whole entry): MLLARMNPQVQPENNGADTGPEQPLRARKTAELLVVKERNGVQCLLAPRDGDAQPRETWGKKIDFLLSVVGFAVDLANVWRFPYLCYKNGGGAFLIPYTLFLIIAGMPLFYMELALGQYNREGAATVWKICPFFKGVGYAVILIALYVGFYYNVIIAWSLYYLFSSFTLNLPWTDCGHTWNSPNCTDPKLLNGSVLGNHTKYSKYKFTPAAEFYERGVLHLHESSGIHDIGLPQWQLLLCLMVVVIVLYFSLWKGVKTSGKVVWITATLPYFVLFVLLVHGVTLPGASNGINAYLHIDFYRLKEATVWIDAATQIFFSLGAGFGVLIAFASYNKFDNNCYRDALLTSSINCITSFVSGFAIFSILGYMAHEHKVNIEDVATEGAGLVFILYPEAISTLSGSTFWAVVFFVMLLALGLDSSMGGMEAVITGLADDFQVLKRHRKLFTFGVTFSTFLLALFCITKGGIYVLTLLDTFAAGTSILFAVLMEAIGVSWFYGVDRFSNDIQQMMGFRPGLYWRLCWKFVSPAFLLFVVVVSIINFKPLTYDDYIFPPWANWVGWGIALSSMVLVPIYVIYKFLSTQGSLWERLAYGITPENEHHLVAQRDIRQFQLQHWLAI

As for `N[C@H]1CCN(c2nc(-c3c(F)cccc3F)c3ccc(F)cc3n2)C1` [Example 94, S-1-[4-(2,6-Difluoro-phenyl)-7-fluoro-quinazolin-2-yl]-pyrrolidin-3-ylamine], the results for the Ki in assay [1] and in assay [2] were 23.7 nM and 15.7 nM, respectively. For the compound `Fc1ccc(-c2nc(N3CC[C@@H]4CNC[C@@H]43)nc3cc(F)ccc23)c(F)c1` [Example 142, R,R-4-(2,4-Difluoro-phenyl)-7-fluoro-2-(hexahydro-pyrrolo[3,4-b]pyrrol-1-yl)-quinazoline], the values for the Ki in assay [1] and in assay [2] were 90.6 nM and 91.4 nM, respectively.

As for `Clc1ccc(-c2nc(N3CCNCC3)nc3ccccc23)cc1Cl` [Example 115, 4-(3,4-dichloro-phenyl)-2-piperazin-1-yl-quinazoline], the inhibitory constant (Ki) in assay [1] stood at 114 nM; in assay [2], 332 nM. In the same order, the values of “S-[4-(2,4-Difluoro-phenyl)-7-fluoro-quinazolin-2-yl]-pyrrolidin-3-yl-amine [Example 144]” are 23.4 nM and 26.5 nM. In the same order, the values of `CN1CCN(c2nc(-c3c(F)cccc3F)c3ccc(F)cc3n2)CC1` [Example 83, 4-(2,6-Difluoro-phenyl)-7-fluoro-2-(4-methyl-piperazin-1-yl)-quinazoline] are 37.6 nM and 314 nM. Consider “R-4-(2,4-Difluoro-phenyl)-7-fluoro-2-(2-methyl-piperazin-1-yl)-quinazoline [Example 138]”, for which the results for the Ki in assay [1] and in assay [2] were 35.4 nM and 24.6 nM, respectively. Turning to `CN1CCN(c2nc(-c3ccc(F)c(F)c3)c3ccccc3n2)CC1` [Example 114, 4-(3,4-Difluoro-phenyl)-2-(4-methyl-piperazin-1-yl)-quinazoline], the inhibition constant (Ki) in assay [2] stood at 1090 nM.

Consider `N[C@H]1CCN(c2nc(-c3cccc(F)c3F)c3ccc(F)cc3n2)C1` [Example 109, S-1-[4-(2,3-Difluoro-phenyl)-7-fluoro-quinazolin-2-yl]-pyrrolidin-3-yl-amine], for which the results for the Ki in assay [1] and in assay [2] were 13.9 nM and 30.4 nM, respectively. Take `Fc1ccc2c(-c3ccccc3C(F)(F)F)nc(N3CCNCC3)nc2c1` [Example 160, 7-Fluoro-2-piperazin-1-yl-4-(2-trifluoromethyl-phenyl)-quinazoline]: the values for the Ki in assay [1] and in assay [2] were 60.7 nM and 976 nM, respectively. For `Fc1ccc(-c2nc(N3CCNCC3)nc3cc(F)ccc23)c(Cl)c1` [Example 134, 4-(2-Chloro-4-fluoro-phenyl)-7-fluoro-2-piperazin-1-yl-quinazoline], in that order: 30.3 nM and 62.6 nM.

Consider `Fc1ccc(-c2nc(N[C@@H]3CCNC3)nc3cc(F)ccc23)c(F)c1` [Example 143, R-[4-(2,4-Difluoro-phenyl)-7-fluoro-quinazolin-2-yl]-pyrrolidin-3-yl-amine], for which the Ki in assay [1] was determined as 17.9 nM; in assay [2], 9.3 nM. As to `Fc1cccc(F)c1-c1nc(N[C@@H]2CCNC2)nc2ccccc12` [Example 99, R-[4-(2,6-Difluoro-phenyl)-quinazolin-2-yl]-pyrrolidin-3-yl-amine], the Ki in assay [1] worked out at 45.7 nM; in assay [2] it was 2900 nM. For `C[C@H]1CNCCN1c1nc(-c2ccccc2)c2ccc(F)cc2n1` [Example 106, S-′7-Fluoro-2-(2-methyl-piperazin-1-yl)-4-phenyl-quinazoline], in that order: 18.3 nM and 49.7 nM.

`CNC1CCN(c2nc(-c3ccc(F)cc3F)c3ccccc3n2)C1` (centres unmarked) [Example 150, {1-[4-(2,4-Difluoro-phenyl)-quinazolin-2-yl]-pyrrolidin-3-yl}-methyl-amine]: the Ki in assay [1] was found to be 41.5 nM; in assay [2], 2700 nM.

Consider `C[C@@H]1CNCCN1c1nc(-c2c(F)cccc2F)c2ccccc2n1` [Example 86, R-4-(2,6-Difluoro-phenyl)-2-(2-methyl-piperazin-1-yl)-quinazoline], for which the inhibition constant Ki in assay [1] is 14.4 nM; in assay [2], 88.6 nM. For the compound `Fc1ccc(-c2nc(N3CCNCC3)nc3cc(F)ccc23)c(F)c1` [Example 140, 4-(2,4-Difluoro-phenyl)-7-fluoro-2-piperazin-1-yl-quinazoline], the Ki in assay [1] amounted to 28.3 nM; in assay [2], 16.7 nM. In the same order, the values of `Fc1cccc(-c2nc(NC3CCNCC3)nc3ccccc23)c1F` [Example 156, [4-(2,3-Difluoro-phenyl)-quinazolin-2-yl]-piperidin-4-yl-amine] are 221 nM and 6980 nM. For `N[C@@H]1CCN(c2nc(-c3c(F)cccc3F)c3ccc(F)cc3n2)C1` [Example 93, R-1-[4-(2,6-Difluoro-phenyl)-7-fluoro-quinazolin-2-yl]-pyrrolidin-3-ylamine], in that order: 21.9 nM and 50.6 nM. As for `NCCCNc1nc(-c2ccc(F)cc2F)c2ccccc2n1` [Example 152, N1-[4-(2,4-Difluoro-phenyl)-quinazolin-2-yl]-propane-1,3-diamine], the inhibition constant Ki is 25.8 nM in assay [1] and above 10000 nM in assay [2].

`C[C@H]1CNCCN1c1nc(-c2c(F)cccc2F)c2ccc(F)cc2n1` [Example 107, S-4-(2,6-Difluoro-phenyl)-7-fluoro-2-(2-methyl-piperazin-1-yl)-quinazoline]: the Ki in assay [1] came out at 47.3 nM; in assay [2], 30.8 nM. For `Fc1ccc(-c2nc(N3CCNCC3)nc3ccccc23)cc1F` [Example 108, 4-(3,4-difluoro-phenyl)-2-piperazin-1-yl-quinazoline], in that order: 7.7 nM and 77.7 nM.

On to `Fc1ccc2c(-c3cccc(F)c3F)nc(N3CCNCC3)nc2c1` [Example 111, 4-(2,3-Difluoro-phenyl)-7-fluoro-2-piperazin-1-yl-quinazoline], for which the inhibitory constant (Ki) in assay [1] worked out at 18.6 nM; in assay [2] it was 37.1 nM. Consider `Clc1ccc(Cl)c(-c2nc(N3CCNCC3)nc3ccccc23)c1` [Example 125, 4-(2,5-dichloro-phenyl)-2-piperazin-1-yl-quinazoline], for which the Ki in assay [1] was 32.2 nM; in assay [2], 636 nM.

Turning to `CC(C)[C@H]1CNCCN1c1nc(-c2cccc(F)c2F)c2ccccc2n1` [Example 166, S-4-(2,3-Difluoro-phenyl)-2-(2-isopropyl-piperazin-1-yl)-quinazoline], the inhibition constant Ki in assay [1] was 79.7 nM; in assay [2] it was 185 nM. For `N[C@H]1CCN(c2nc(-c3c(F)cccc3F)c3ccccc3n2)C1` [Example 96, S-1-[4-(2,6-Difluoro-phenyl)-quinazolin-2-yl]-pyrrolidin-3-ylamine], in that order: 12.2 nM and 70.8 nM. For `Brc1ccc2nc(N3CCNCC3)nc(-c3ccccc3)c2c1` [Example 91, 6-Bromo-4-phenyl-2-piperazin-1-yl-quinazoline], in that order: 211 nM and 31.4 nM. As for `CN1CCN(c2nc(-c3ccc(F)c(F)c3)c3ccccc3n2)CC1` [Example 103, 4-(3,4-Difluoro-phenyl)-2-(4-methyl-piperazin-1-yl)-quinazoline], the inhibitory constant (Ki) in assay [2] was determined as 645 nM.

With `Fc1cccc(-c2nc(C3CCNCC3)nc3ccccc23)c1F` [Example 71, 4-(2,3-Difluoro-phenyl)-2-piperidin-4-yl-quinazoline], the inhibitory constant (Ki) in assay [1] was determined as 3 nM. On the same count and under the same terms, next, `c1ccc(Cc2nc(N3CCNCC3)nc3ccccc23)cc1` [Example 28, 4-Benzyl-2-piperazin-1-yl-quinazoline hydrochloride]: 93.4 nM. In turn, `c1ccc(-c2nc(N3CC4CNCC4C3)nc3ccccc23)cc1` (centres unmarked) [Example 81, 2-(Hexahydro-pyrrolo[3,4-c]pyrrol-2-yl)-4-phenyl-quinazoline] gave an inhibitory constant (Ki) in assay [1] of 61 nM.

In assay [1], `COc1ccccc1-c1nc(C2CCNCC2)nc2ccccc12` [Example 46, 4-(2-Methoxy-phenyl)-2-piperidin-4-yl-quinazoline hydrochloride] came in with a Ki of 60.3 nM. The compound `NCCNc1nc(-c2ccccc2)c2ccccc2n1` [Example 13, N^1-(4-Phenyl-quinazolin-2-yl)-ethane-1,2-diamine hydrochloride] had a Ki in assay [1] of 89.2 nM. `c1ccc(-c2nc(N3C4CCCC3CNC4)nc3ccccc23)cc1` [Example 55, 2-(3,9-Diaza-bicyclo[3.3.1]non-9-yl)-4-phenyl-quinazoline]: the Ki in assay [1] is 11 nM. On the same count and under the same terms, next, `Clc1ccc(-c2nc(N3CCNCC3)nc3ccccc23)cc1` [Example 62, 4-(4-Chloro-phenyl)-2-piperazin-1-yl-quinazoline]: 17.3 nM.
